Experiment [1] has as its system mice subjected to SCI. The experiment is described as follows: Mouse model of spinal cord ischemia (SCI): delayed paraplegia, hindlimb motor function by Basso mouse scale (BMS). The experiment is classed as in vivo.
Description: Adult C57BL/6J mice (12-18 weeks old) of both sexes were purchased from Jackson Laboratory (Bar Harbor, ME, USA). Both male and female mice were used in experiments to investigate the neuroprotective effect of GSSSG on motor function after SCI. […] All mice were housed in a temperature and humidity-controlled room in the animal center with a 12-hour light/dark cycle, and were provided with food and water ab libitum. To permit access by mice that were recovering from surgery, additional food pellets were inserted into hydrated gel placed on the bedding. A randomized paired design was used to minimize the variability between each treatment group. Mice were paired based on weight, age, delivery dates, and when possible, holding cages. After the pairing, mice were randomly assigned to different treatments.
The surgical procedures to produce delayed paraplegia in mice were performed as previously described^6 (FIG. 2A). Mice were anesthetized with 5% isoflurane in 100% O2 and tracheally intubated with a 20-gauge catheter (Angiocath; Becton Dickinson, Franklin Lakes, NJ, USA). […] The paravertebral muscle temperature was measured using a T-type implantable thermocouple probe (IT-18) and a T-type pod (ADInstruments, Colorado Springs, CO, USA). […] A median sternotomy extended from the apex of the manubrium to the second rib. The aortic arch was gently isolated between the left common carotid artery (LCCA) and the left subclavian artery (LSA), avoiding the vagus nerve and the left recurrent laryngeal nerve. […] After ischemia, the clips were removed in reverse order. Incisions were closed in layers and mechanical ventilation was discontinued. After stable spontaneous respiration was confirmed, mice were extubated.
The previously described surgical procedures^6 were modified as follows. The respiratory rate during the procedure was increased to 230 breaths/minute, because hyperventilation promotes the occurrence of delayed paraplegia caused by spinal cord ischemia^33. A laser Doppler perfusion monitor (moorVMS-LDF1; Moor Instruments, Millwey, UK) was used to monitor the femoral artery blood flow^28,29. […] To improve the accuracy of surgical procedures, a microscope (Leica MZ95; Leica Microsystems, Buffalo Grove, IL, USA) was used to isolate the aortic arch and place the clips.
Study drugs were administered intranasally using a single-channel pipettor. Mice were anesthetized with 3% isoflurane using a non-rebreathing circuit with a mouse nose cone (VetEquip, Inc., Livermore, CA, USA). While the drugs were administered, the nose cone was removed and mice were allowed to breathe air. Approximately 6 μL of each drug was administered into the mouse's nostrils and the mouse inhaled the droplets during inspiration. […]
Experiment [2] has as its system primary cortical neurons. The experiment can be described thus: Relative sulfane sulfur levels in primary cortical neurons (SSip-1 DA). The experiment is classed as cell-based, mouse. Particulars: incubation at 10 μM for 20 minutes; relative to untreated neurons. The protocol: Primary cortical neurons were isolated from the cerebral cortices of C57BL/6J mice of both sexes at embryonic day 15, as previously described 39. Primary cortical neurons were maintained at 37° C. in a humidified tissue culture chamber with 5% CO2 and cells were used on day 11 after harvest.
Primary cortical neurons or SH-SY5Y cells, a human neuroblastoma cell line (American Type Culture Collection, Manassas, VA, USA), were incubated with SSip-1 DA […] at 37° C. for 20 minutes in the dark. Cells were washed with pre-warmed HBSS containing calcium and magnesium (Thermo Fisher Scientific, Waltham, MA, USA) and then cells were incubated with GSSSG, sodium trisulfide (Na2S3; Dojindo Molecular Technologies, Inc., Rockville, MD, USA), PTN-SSS, or vehicle alone for 20 minutes at 37° C. in the dark. Fluorescence intensities were measured using a microplate reader.

Experiment [3] relates to primary cortical neurons. The experiment is described as follows: Cell viability after oxygen and glucose deprivation/reoxygenation (OGD/R), primary cortical neurons. It is filed as cell-based, mouse. The protocol:
Primary cortical neurons were isolated from the cerebral cortices of C57BL/6J mice of both sexes at embryonic day 15, as previously described 39. Primary cortical neurons were maintained at 37° C. in a humidified tissue culture chamber with 5% CO2 and cells were used on day 11 after harvest. […] After reoxygenation, cell viability and cell injury were assessed using crystal violet and lactate dehydrogenase (LDH) assays, as previously described^39.

Experiment [4] deals with CCL2, CXCL1, IL-1β, IL-6, TNF-α, Bcl-2, Bcl-XL, SQOR and other sulfide-metabolizing enzymes mRNA. The experiment is described as follows: mRNA levels in lumbar spinal cords 48 hours after surgery (quantitative real-time PCR). The experiment is classed as in vivo, mouse. Particulars: intranasal GSSSG after SCI. The protocol: Messenger RNA (mRNA) levels were measured as previously described^15 using lumbar spinal cords at 48 hours after surgery. The mRNA levels of C-C motif chemokine 2 (CCL2), C-X-C motif chemokine ligand 1 (CXCL1), interleukin (IL)-1β, IL-6, tumor necrosis factor (TNF)-α, B-cell lymphoma 2 (Bcl-2), B-cell lymphoma-extra large (Bcl-XL), cystathionine beta synthase, cystathionine gamma lyase, 3-mercaptopyruvate sulfurtransferase, sulfide:quinone oxidoreductase (SQOR), ethylmaronic encephalopathy 1, thiosulfate sulfurtransferase, sulfite oxidase, cysteinyl-tRNA synthetase 1, and cysteinyl-tRNA synthetase 2 were standardized to the level of 18S ribosomal RNA using quantitative real-time polymerase chain reaction (7500 Fast Real-Time PCR System, Thermo Fisher Scientific, Waltham, MA, USA).
(In general: Real-time PCR tracks product formation cycle by cycle.)

Experiment [5] has as its system SH-SY5Y cells. The experiment is described as follows: Cell viability of SH-SY5Y cells incubated with MPP+ (crystal violet assay). It is filed as cell-based, human. Particulars: MPP+ 5 mM, 24 h; 10 μM each. The protocol: Cell viability assays was performed to examine cell viabilities of SH-SY5Y cells or murine primary cortical neurons 24 h after the addition of MPP^+ (5 mM for SH-SY5Y, 50 μM for primary cortical neurons) with vehicle (PBS), Na2S (Sigma-Aldrich), Na2S3 (Dojindo Molecular Technologies, Inc), GSSSG (Glutathione trisulfide, Kyowa Hakko Bio Co., Ltd., Tokyo, Japan), LA (α-Lipoic acid, Sigma-Aldrich) or LASSS (α-Lipoic acid trisulfide, Kyowa Hakko Bio Co., Ltd., Tokyo, Japan). Cell viability was measured using the crystal violet assay.

The test system of experiment [6] is ventral horn of lumbar spinal cord. The experiment can be described thus: Histology of lumbar spinal cord 48 hours after SCI (Nissl, Iba-1, cleaved caspase-3). The experiment is classed as in vivo, mouse. The protocol:
The lumbar enlargement of the spinal cord was removed 48 hours after surgery and sectioned to […] thickness using a cryotome (CM1850UV; Leica Biosystems, Heidelberger, Germany). Nissl staining was conducted using the Nissl stain kit (VitroVivo Biotech, Rockville, MD, USA) according to the protocol recommended by the manufacturer. Immunohistochemical staining for ionized calcium-binding adaptor molecule 1 (Iba-1) and cleaved caspase-3 was performed as previously described^6,15. The stained sections were examined using an epifluorescence microscope (Nikon Eclipse 80i; Nikon Instruments, Inc., Melville, NY, USA).
The number of stained cells was counted in one field (0.26 mm^2) under high magnification (200×) in 3 different sections of spinal cord from each mouse by an investigator who was blinded to the identity of the samples. The average number of stained cells was calculated for each mouse. For quantitative analysis of Iba-1 staining, the Iba-1-positive area per one field (0.26 mm^2) under high magnification (200×) in 3 different ventral horn sections for each mouse was calculated using the ImageJ image-processing program (National Institutes of Health, Bethesda, MD, USA). The mean area of Iba-1 staining in the spinal cords of mice in the sham procedure group was set to 1 and the relative amount of Iba-1 staining was determined for each experimental group of mice. Each group included 5 mice.

Experiment [7] relates to sulfane sulfur in lumbar spinal cord. The experiment can be described thus: Relative sulfane sulfur levels in lumbar spinal cords after SCI (SSip-1). The settings on record: 48 hours after SCI; intranasal GSSSG; sham set to 1.00±0.30, vehicle alone 0.56±0.13; mean ± SD. It is filed as in vivo, mouse. The protocol:
Lumbar spinal cords were harvested 48 hours after surgery and snap-frozen in liquid nitrogen. Spinal cords were subsequently homogenized in Hanks' balanced salt solution (HBSS; Thermo Fisher Scientific, Waltham, MA, USA) containing SSip-1 (5 μM), incubated at room temperature in the dark for 20 minutes, and then subjected to centrifugation. SSip-1 was synthesized and provided by the Hanaoka laboratory^38. The fluorescence intensities of supernatants were measured using a microplate reader (SpectraMax M5; Molecular Devices, San Jose, CA, USA) at the wavelength of λex/λem=491 nm/525 nm. The fluorescence intensities were normalized to the weights of the spinal cord.

On to `N[C@@H](CCC(=O)N[C@@H](CSSSC[C@H](NC(=O)CC[C@H](N)C(=O)O)C(=O)NCC(=O)O)C(=O)NCC(=O)O)C(=O)O` [GSSSG, glutathione trisulfide], for which the “male mice rescued from delayed paraplegia” value in experiment [1] (GSSSG vs GSSG comparison, n=6 per group, intranasal GSSSG 50 mg/kg, GSSG 53 mg/kg) turned out to be 83%. Further, in experiment [1] (male mice, n=11 per group, intranasal at 0, 8, 23, 32 hours after surgery, GSSSG 50 mg/kg, GSH 45.2 mg/kg), the “mice in which development of delayed paraplegia was prevented” value is 73%. The “levels of intracellular sulfane sulfur in primary cortical neurons” value in experiment [2] is listed as “increased levels of intracellular sulfane sulfur”. In experiment [3] (GSSSG 100 μM), the “cell survival after OGD/R” value is “failed to improve cell survival”. For the same compound, the “release of LDH after OGD/R” value in experiment [3] (GSSSG at 30 μM or 60 μM, vs vehicle-only treated cells) is “decreased release of LDH”. Also, the “cell viability after OGD/R, crystal violet assay (GSSSG, GSH, GSSG comparison)” value in experiment [3] (GSSSG at 30 μM, GSH at 60 μM, GSSG at 30 μM, vs vehicle-only treated cells) is on record as “improved cell viability”. Further, the “cell viability after OGD/R, crystal violet assay” value in experiment [3] (GSSSG at 30 μM, vs vehicle-only treated cells) was “increased cell viability”. Moreover, in experiment [4], the “mRNA encoding SQOR in lumbar spinal cord” value is listed as “decreased the level of mRNA encoding SQOR”; the “mRNA encoding pro-inflammatory cytokines in lumbar spinal cord” value is reported as “attenuated the upregulation”; the “mRNA levels encoding other enzymes that synthesize or metabolize sulfides or persulfides” value is recorded as “no effect”; the “mRNA levels of anti-apoptotic genes Bcl-2 and Bcl-XL, vehicle alone vs GSSSG” value is reported as “no significant difference”. In addition, the “viability of MPP+-treated SH-SY5Y cells” value in experiment [5] is on record as “increased the viability”. Besides, the “number of cleaved caspase-3-positive neurons in lumbar spinal cord” value in experiment [6] (intranasal GSSSG) is given as “prevented the SCI-induced increase”. In experiment [6] (intranasal GSSSG at 0, 8, 23, 32 hours, vs vehicle alone), the “number of viable neurons (Nissl stain) in ventral horns of lumbar spinal cord” value is listed as “significant increase in the number of viable neurons”. The “Iba-1-positive staining (microglial activation) in lumbar spinal cord” value in experiment [6] (intranasal GSSSG, vs vehicle alone) is on record as “significant reduction in staining for Iba-1”. In experiment [7], the “relative sulfane sulfur levels in lumbar spinal cord” value is reported as 1.37±0.50.

(Values after patent US20250345383A1, “INTRANASAL ADMINISTRATION OF POLYSULFIDE” (The General Hospital Corporation, priority 2022, published 2025).)
